One test addresses D1 dopamine receptors (Homo sapiens (Human), UniProt P21728). Briefly: Radioligand binding assay, D1 receptor, HEK293T membrane homogenates. The note with it: HEK293T membranes, [3H]SCH23390. How it is done: (§1) The affinity of compounds to D1 and D2 dopamine receptors were determined by competition binding assays. Membrane homogenates of HEK293T cells were stably transfected with D1, or D2 receptors. […] The reaction was started by addition of membranes ([…]) and stopped by rapid filtration through Whatman GF/B glassfiber filter and subsequently washed with cold buffer (50 mM Tris, 5 mM EDTA, pH 7.4) using a Brandel 24-well cell harvester. Scintillation cocktail was added and the radioactivity was determined in a MicroBeta liquid scintillation counter. The IC50 and Ki values were calculated by nonlinear regression (PRISM, Graphpad, San Diego, Calif.) using a sigmoidal function.

Another test deals with dopamine D2 receptor (Homo sapiens (Human), UniProt P14416). Briefly: Radioligand binding assay, D2 receptor, HEK293T membrane homogenates. The arrangement: D2 Inhibition (%): concentration or dose not given beside the values. The note with it: HEK293T membranes, [3H]Spiperone. How it is done: as §1
dopamine D2 receptor, sequence (P14416 whole entry, species assumed): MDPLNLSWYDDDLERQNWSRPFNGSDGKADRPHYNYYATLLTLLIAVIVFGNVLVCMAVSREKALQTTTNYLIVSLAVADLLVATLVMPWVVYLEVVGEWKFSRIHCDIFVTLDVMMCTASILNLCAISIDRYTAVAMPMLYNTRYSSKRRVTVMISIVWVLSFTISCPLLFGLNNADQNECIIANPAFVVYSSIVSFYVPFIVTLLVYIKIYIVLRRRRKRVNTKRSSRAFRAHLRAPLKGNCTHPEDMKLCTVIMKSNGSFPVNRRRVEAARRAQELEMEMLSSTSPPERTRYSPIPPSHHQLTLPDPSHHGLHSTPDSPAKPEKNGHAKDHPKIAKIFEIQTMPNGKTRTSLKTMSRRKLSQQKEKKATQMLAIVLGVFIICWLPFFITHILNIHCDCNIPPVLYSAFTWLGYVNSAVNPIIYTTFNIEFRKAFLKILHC
For a further test, the target named is dopamine D1 receptor (Macaca mulatta (Rhesus macaque), UniProt O77680). As to the kind of experiment: Affinity on dopamine D1 receptor, competition with [3H] SCH23390. It is filed as binding. Also noted: D1 receptor inhibition ratio (%): concentration or dose not given beside the values. The note with it: for affinity on dopamine D1 receptor (in words): summary of the tables. How it is done: (§2) (1). Determination of the Affinity of Hexahydrodibenzo[a,g]Quinolizine Compound of General Formula I and Derivatives Thereof on Dopamine D1, Dopamine D2, 5-HT1A, and 5-HT2A Receptor.
dopamine D1 receptor, sequence (O77680 whole entry): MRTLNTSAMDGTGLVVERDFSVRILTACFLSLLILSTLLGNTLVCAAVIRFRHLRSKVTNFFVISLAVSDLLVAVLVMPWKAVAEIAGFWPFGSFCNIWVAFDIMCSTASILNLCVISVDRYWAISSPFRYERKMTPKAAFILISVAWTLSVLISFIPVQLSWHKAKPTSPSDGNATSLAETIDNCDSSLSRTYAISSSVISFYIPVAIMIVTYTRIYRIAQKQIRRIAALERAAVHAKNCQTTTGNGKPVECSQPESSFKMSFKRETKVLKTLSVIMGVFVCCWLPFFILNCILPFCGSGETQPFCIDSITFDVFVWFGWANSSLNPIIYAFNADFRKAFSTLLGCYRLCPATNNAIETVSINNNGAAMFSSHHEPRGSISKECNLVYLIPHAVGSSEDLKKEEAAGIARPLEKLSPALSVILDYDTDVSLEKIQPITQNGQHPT
(§3) 1) The Experimental Method
(§4) Different concentrations (10^−5 M-10^−11 M) of the compound of the invention and corresponding isotope receptor ligand as well as receptor protein were loaded into the reaction tube and incubated in 30° C. water bath for 60 minutes. The reaction was terminated in a refrigerator. The reaction mixture was put in a Millipore filter (millipore) cell sample collector, filtered through suction filtration using GF/C glass fiber filter paper, and dried. The resulting sample was placed into 0.5 mL tube. 500 μL liquid scintillation fluid was added and intensity of radioactivity was determined by counting.
(§5) (1) Construction of receptor and materials for cell culture: Escherichia coli. DH5α strain; insect virus transfer vector pVL1393 plasmid; BaculoGold linear Chinese baculovirus DNA, purchased from ParMingen company; mkD1RcDNA; rD2R cDNA; various restriction endonucleases, TaqDNA polymerase, T4 ligase, etc., LB medium; insect cell culture TNM-FH.
(§6) (2) the Experimental Materials for Receptor Binding
(§7) Firstly, the above […] are dissolved in DMSO and then diluted with double distilled water to the appropriate concentration (10^−5 M-10^−11 M).
(§8) (+) Butaclamo purchased from RBI company, GF/C glass fiber filter paper purchased from Whatman Co., scintillation fluid (dopamine D1, D2 receptors)/liposoluble scintillation fluid (5-HT1A, 5-HT2A receptor), Beckman LS-6500 multi-function liquid scintillation counter.

The next test addresses D2 dopamine receptor (Rattus norvegicus (Rat), UniProt P61169). As to the kind of experiment: Affinity on dopamine D2 receptor, competition with [3H] Spiperone. It is filed as binding. The arrangement: D2 receptor inhibition ratio (%): concentration or dose not given beside the values. The note with it: for affinity on dopamine D2 receptor (in words): summary of the tables. How it is done:
as §2, §3, §4, §5, §6, §7, §8

For another test, the target named is 5-HT1A receptor (Homo sapiens (Human), UniProt P08908). As to the kind of experiment: Affinity on 5-HT1A receptor, competition with [3H] 8-OH-DPAT. The test is classed as binding. How it is done: as §2, §3, §4, §6
5-HT1A receptor, sequence (P08908 whole entry): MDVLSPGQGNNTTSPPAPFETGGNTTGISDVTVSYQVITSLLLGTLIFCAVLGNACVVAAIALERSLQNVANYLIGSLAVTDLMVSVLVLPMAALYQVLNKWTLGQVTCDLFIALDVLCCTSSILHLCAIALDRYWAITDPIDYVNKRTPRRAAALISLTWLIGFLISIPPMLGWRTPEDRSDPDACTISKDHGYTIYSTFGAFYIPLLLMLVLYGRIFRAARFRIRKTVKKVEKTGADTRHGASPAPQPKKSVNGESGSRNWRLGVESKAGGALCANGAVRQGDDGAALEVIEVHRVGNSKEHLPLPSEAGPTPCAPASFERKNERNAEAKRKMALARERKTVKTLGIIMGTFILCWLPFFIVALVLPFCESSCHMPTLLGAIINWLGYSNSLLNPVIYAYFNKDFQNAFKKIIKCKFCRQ
8-OH-DPAT; 5-HT1A receptor protein expressed in HEK-293 cells;
as §7, §8

The target in the next test is D1 receptor (Homo sapiens (Human), UniProt P21728). As to the kind of experiment: [35S]GTPγS binding assay for D1 receptor. It is filed as biochemical. As to conditions: [35S]GTPγS binding; read-out: D1 agonist Emax %. (In general: GTPγS is a poorly hydrolysed GTP analogue; its binding reports G protein activation.)
D1 receptor, sequence (P21728 whole entry): as the sequence (O77680 whole entry) above, with I311N counted along it

D1 dopamine receptors, sequence (P21728 whole entry): as the sequence (O77680 whole entry) above, with I311N counted along it
D2 dopamine receptor, sequence (P61169 whole entry): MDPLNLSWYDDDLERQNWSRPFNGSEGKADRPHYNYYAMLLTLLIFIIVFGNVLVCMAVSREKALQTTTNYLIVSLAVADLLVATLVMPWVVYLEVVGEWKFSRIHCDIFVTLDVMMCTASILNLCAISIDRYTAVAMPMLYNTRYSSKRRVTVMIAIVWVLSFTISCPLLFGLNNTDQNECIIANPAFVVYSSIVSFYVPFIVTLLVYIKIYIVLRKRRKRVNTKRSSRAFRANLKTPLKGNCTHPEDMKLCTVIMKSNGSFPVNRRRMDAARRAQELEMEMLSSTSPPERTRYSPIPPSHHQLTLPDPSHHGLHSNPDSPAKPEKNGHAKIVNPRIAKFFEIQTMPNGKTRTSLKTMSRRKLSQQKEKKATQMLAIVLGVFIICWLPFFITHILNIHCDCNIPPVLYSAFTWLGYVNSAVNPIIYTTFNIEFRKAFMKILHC

Usually Ki stands for the dissociation constant of the complex between target and ligand, obtained from inhibition or displacement. Compound `COc1cc2c(cc1OC)[C@@H]1Cc3c(CO)c(OC)cc(OC)c3CN1CC2` [DC037076, (S)-2,3,9,11-tetramethoxy-12-hydroxymethyl-5,8,13,13a-tetra-hydro-6H-dibenzo[a,g]quinolizine] yielded a Ki at D1 dopamine receptors of 74.5 ± 3.85 nM. The “D2 Inhibition (%)” value at dopamine D2 receptor is recorded as 1.02%.
In general, IC50 refers to the point on the concentration scale where inhibition reaches its midpoint. Consider `COc1cc2c(c(OC)c1)CN1CCc3cc4c(cc3[C@@H]1C2)OCO4` [DC037078, (S)-2,3-methylenedioxy-9,11-bimethoxy-5,8,13,13a-tetrahydro-6H-dibenzo[a,g]quinolizine], for which, on dopamine D1 receptor, the “D1 receptor inhibition ratio (%)” value came out at 97.79%, the IC50 worked out at 142 nM and the Ki came out at 74.5 nM. The “D2 receptor inhibition ratio (%)” value at D2 dopamine receptor turned out to be 1.02%. The compound also displayed a Ki on D1 dopamine receptors of 64.1 ± 4.43 nM. Further, on dopamine D2 receptor, the “D2 Inhibition (%)” value amounted to 39.50%.
On to `COc1cc2c(cc1O)[C@@H]1Cc3cc(C)cc(C)c3CN1CC2` [DC037031, S-(−)-2-hydroxy-3-methoxy-9,11-dimethyl-5,8,13,13a-tetra-hydro-6H-dibenzo[a,g]quinolizine], for which, at dopamine D1 receptor, the “D1 receptor inhibition ratio (%)” value came to 98.99%, the IC50 is 56.4 nM, the Ki turned out to be 28.9 nM and the “affinity on dopamine D1 receptor (in words)” value was “strong affinity”. In addition, at D2 dopamine receptor, the “D2 receptor inhibition ratio (%)” value stood at 90.10%, the IC50 is 456 nM, the Ki worked out at 161 nM and the “affinity on dopamine D2 receptor (in words)” value is listed as “strong affinity”. The compound further displayed a Ki at D1 dopamine receptors of 28.9 ± 2.73 nM. Besides, the Ki at dopamine D2 receptor stood at 161 ± 21.1 nM.
As to `COc1ccc2c(c1)CCN1Cc3cc(OC)c(OC)cc3CC21` (racemic) [DC037009, (±)-3,10,11-trimethoxy-5,8,13,13a-tetrahydro-6H-dibenzo[a,g]quinolizine], the “D1 receptor inhibition ratio (%)” value on dopamine D1 receptor was −13.6%. Besides, at D2 dopamine receptor, the “D2 receptor inhibition ratio (%)” value is 0.35%.
Consider `COc1ccc(OC)c2c1C[C@H]1c3cc(O)c(O)cc3CCN1C2` [DC037035, S-(−)-2,3-bihydroxy-9,12-bimethoxy-5,8,13,13a-tetrahydro-6H-dibenzo[a,g]quinolizine], for which, at dopamine D1 receptor, the “D1 receptor inhibition ratio (%)” value was 99.68%, the IC50 amounted to 13.3 nM, the Ki is 6.72 nM and the “affinity on dopamine D1 receptor (in words)” value is reported as “strong affinity”. In addition, on D2 dopamine receptor, the “D2 receptor inhibition ratio (%)” value was 84.30% and the “affinity on dopamine D2 receptor (in words)” value was “strong affinity”. Further, the Ki on D1 dopamine receptors was determined as 6.72 ± 0.34 nM. Further, the “D2 Inhibition (%)” value on dopamine D2 receptor was 84.30%.
`COc1c(O)ccc2c1CN1CCc3cc4c(cc3[C@@H]1C2)OCC4` [DC037081, S-(−)-9-methoxyl-10-hydroxy-2,3,5,8,13,13a-hexahydro-8H-benzo[3,2,a,g]furanquinolizine]: the “D1 receptor inhibition ratio (%)” value on dopamine D1 receptor came to 22.60%. Moreover, at D2 dopamine receptor, the “D2 receptor inhibition ratio (%)” value came out at 73.07%. The Ki worked out at 17.3 ± 0.54 nM on D1 dopamine receptors and 147 ± 10.2 nM at dopamine D2 receptor.
On to `COc1cc2c(cc1OC)[C@@H]1Cc3cc4c(cc3CN1CC2)OCO4` [DC037011, S-(−)-2,3-bimethoxy-10,11-methylenedioxy-5,8,13,13a-tetrahydro-6H-dibenzo[a,g]quinolizine], for which, at dopamine D1 receptor, the “D1 receptor inhibition ratio (%)” value is recorded as 59.3%. In addition, the “D2 receptor inhibition ratio (%)” value at D2 dopamine receptor worked out at 41.7%.
In the same order, the values of `COc1cc2c(cc1OC)[C@@H]1Cc3cc(OC)c(OC)c(OC)c3[C@H](C)N1CC2` [DC037019, (8S,14S)-2,3,9,10,11-pentamethoxyl-8-methyl-5,8,13,13a-tetra-hydro-6H-dibenzo[a,g]quinolizine] are 10.3% and 65.3%.
In the same order, the values of `Cc1ccc(C)c2c1CC1c3cc4c(cc3CCN1C2)OCO4` (stereo not drawn) [DC037033, S-(−)-2,3-methylenedioxy-9,12-dimethyl-5,8,13,13a-tetrahydro-6H-dibenzo[a,g]quinolizine] are 91.94% and 13.75%.
For `COc1ccc(OC)c2c1C[C@H]1c3cc4c(cc3CCN1C2)CCO4` [DC037034, S-(+9,12-bimethoxy-2,3,5,8,13,13a-hexahydro-8H-benzo[3,2,a,g]furanquinolizine], on dopamine D1 receptor, the IC50 worked out at 484 nM and the Ki was determined as 248 nM. On 5-HT1A receptor, this compound yielded a Ki of 497 nM.
A word on the Emax: it is the size of the effect at its maximum, as opposed to the concentration needed. With `Oc1cc2c(cc1O)C(c1ccccc1)CNCC2` (stereo not shown) [SKF38393, reference compound], the maximal effect (Emax) on D1 receptor worked out at 100%.
In the case of `COc1cc2c(c(OC)c1OC)CN1CCc3cc4c(cc3[C@@H]1C2)OCO4` [DC037016, S-(−)-2,3-methylenedioxy-9,10,11-bimethoxy-5,8,13,13a-tetra-hydro-6H-dibenzo[a,g]quinolizine], on dopamine D1 receptor, the “D1 receptor inhibition ratio (%)” value is on record as 95.5%, the IC50 is 763 nM and the Ki stood at 377 nM. At D2 dopamine receptor, the “D2 receptor inhibition ratio (%)” value turned out to be 66.2%.
Turning to `COc1ccc2c(c1)CCN1Cc3cc(OC)c(OC)cc3C[C@@H]21` [DC037010, S-(+3,10,11-trimethoxy-5,8,13,13a-tetrahydro-6H-dibenzo[a,g]quinolizine], at dopamine D1 receptor, the “D1 receptor inhibition ratio (%)” value is given as 66.8%. On D2 dopamine receptor, the “D2 receptor inhibition ratio (%)” value is on record as 51.5%.
As to `COc1cc2c(cc1OC)[C@@H]1Cc3cc(OC)c(OC)c(OC)c3CN1CC2` [DC037006, S-(−)-2,3,9,10,11-pentamethoxyl-5,8,13,13a-tetrahydro-6H-dibenzo[a,g]quinolizine], at dopamine D1 receptor, the “D1 receptor inhibition ratio (%)” value is 91.75%, the IC50 is 648 nM and the Ki came to 320 nM. Moreover, on D2 dopamine receptor, the “D2 receptor inhibition ratio (%)” value is listed as 48.0%.
Consider `c1c2c(cc3c1OCO3)CN1CCc3cc4c(cc3[C@@H]1C2)OCO4` [DC037012, S-(−)-2,3,10,11-bimethylenedioxy-5,8,13,13a-tetrahydro-6H-dibenzo[a,g]quinolizine], for which, at dopamine D1 receptor, the “D1 receptor inhibition ratio (%)” value is reported as 95.8%, the IC50 is 300 nM and the Ki is 148 nM. In addition, at D2 dopamine receptor, the “D2 receptor inhibition ratio (%)” value was determined as 89.3%, the IC50 stood at 1240 nM and the Ki is 240 nM.
`COc1cc2c(cc1OC)C1Cc3cc(OC)c(OC)c(OC)c3CN1CC2` (racemic) [DC037002, (±)-2,3,9,10,11-pentamethoxyl-5,8,13,13a-tetrahydro-6H-dibenzo[a,g]quinolizine]: on dopamine D1 receptor, the “D1 receptor inhibition ratio (%)” value worked out at 77.95%. In addition, on D2 dopamine receptor, the “D2 receptor inhibition ratio (%)” value stood at 27.05%.
In the same order, the values of `COc1cc2c(cc1OC)CN1CCc3cc4c(cc3[C@@H]1C2)OCO4` [DC037015, S-(−)-2,3-methylenedioxy-10,11-bimethoxy-5,8,13,13a-tetrahydro-6H-dibenzo[a,g]quinolizine] are 59.2% and 59.3%.
In the same order, the values of `COc1cc2c(cc1OC)CN1CCc3cc(OC)c(OC)cc3C1C2` (racemic) [DC037001, (±)-2,3,10,11-tetramethoxy-5,8,13,13a-tetrahydro-6H-dibenzo[a,g]quinolizine] are 58.95% and 14.7%.
In the case of `COc1c(O)ccc2c1CN1CCc3cc4c(cc3[C@@H]1C2)OCCO4` [DC037082, S-(−)-2,3-bimethylenedioxy-9-methoxyl-10-hydroxy-5,8,13,13a-tetrahydro-6H-dibenzo[a,g]quinolizine], at dopamine D1 receptor, the “D1 receptor inhibition ratio (%)” value amounted to 99.32%, the IC50 was found to be 14.7 nM, the Ki worked out at 7.51 nM and the “affinity on dopamine D1 receptor (in words)” value is given as “strong affinity”. Further, at D2 dopamine receptor, the “D2 receptor inhibition ratio (%)” value is 63.94% and the “affinity on dopamine D2 receptor (in words)” value is reported as “strong affinity”.
